Reference: ChEMBL document CHEMBL1201862, “PubChem BioAssay data set” (2004)
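Five concentrations, 48 hours, 96-well plates. The concentration for 50% growth inhibition is given as GI50.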 Active and inactive are the calls of the source. No stated cut-off is given here; in the data, active = GI50 up to about 1.1 µM and inactive = higher.

How the values were obtained:
Assay in all cases: inhibition of tumour cell growth, NCI panel, 48 h
A498 = test system: A498
ACHN = test system: ACHN
CAKI-1 = test system: CAKI-1
HCC 2998 = test system: HCC 2998
HCT-116 = test system: HCT-116
IGROV-1 = test system: IGROV-1
KM12 = test system: KM12
MDA-MB-231 = test system: MDA-MB-231
NCI-H522 = test system: NCI-H522
NCI/ADR-RES = test system: NCI/ADR-RES
OVCAR-3 = test system: OVCAR-3
OVCAR-4 = test system: OVCAR-4
OVCAR-5 = test system: OVCAR-5
PC-3 = test system: PC-3
SN12C = test system: SN12C
SNB-19 = test system: SNB-19
SNB-75 = test system: SNB-75
U-251 = test system: U-251
RPMI-8226 = test system: RPMI-8226
SK-MEL-2 = test system: SK-MEL-2

Q: For c1ccc([P+](CCCCCC[P+](c2ccccc2)(c2ccccc2)c2ccccc2)(c2ccccc2)c2ccccc2)cc1, which GI50 (A498) is on record?
A: 5.04 µM (inactive)

Q: What about the GI50 (ACHN) of the same molecule?
A: 50.8 µM (inactive)

Q: What about the GI50 (CAKI-1) of the same molecule?
A: > 100 µM (inactive)

Q: And the GI50 (HCC 2998)?
A: 46.7 µM (inactive)

Q: And the GI50 (HCT-116)?
A: 4.51 µM (inactive)

Q: And the GI50 (IGROV-1)?
A: 3.84 µM (inactive)

Q: What about the GI50 (KM12) of the same molecule?
A: 3.85 µM (inactive)

Q: What about the GI50 (MDA-MB-231) of the same molecule?
A: 12.8 µM (inactive)

Q: What about the GI50 (NCI-H522) of the same molecule?
A: 7.24 µM (inactive)

Q: And the GI50 (NCI/ADR-RES)?
A: > 100 µM (inactive)

Q: And the GI50 (OVCAR-3)?
A: 19.8 µM (inactive)

Q: What about the GI50 (OVCAR-4) of the same molecule?
A: 23.3 µM (inactive)

Q: What about the GI50 (OVCAR-5) of the same molecule?
A: 34.3 µM (inactive)

Q: And the GI50 (PC-3)?
A: 8.51 µM (inactive)

Q: And the GI50 (SN12C)?
A: 15.3 µM (inactive)

Q: What about the GI50 (SNB-19) of the same molecule?
A: 0.906 µM (active)

Q: And the GI50 (SNB-75)?
A: 5.2 µM (inactive)

Q: What about the GI50 (U-251) of the same molecule?
A: 0.798 µM (active)

Q: With Oc1nc2cc3nc(O)c(O)nc3cc2nc1O as the molecule, how does the GI50 (A498) read?
A: > 100 µM (inactive)

Q: What about the GI50 (ACHN) of the same molecule?
A: > 100 µM (inactive)

Q: What about the GI50 (CAKI-1) of the same molecule?
A: > 100 µM (inactive)

Q: What about the GI50 (HCC 2998) of the same molecule?
A: > 100 µM (inactive)

Q: And the GI50 (HCT-116)?
A: > 100 µM (inactive)

Q: And the GI50 (IGROV-1)?
A: > 100 µM (inactive)

Q: And the GI50 (KM12)?
A: > 100 µM (inactive)

Q: And the GI50 (MDA-MB-231)?
A: > 100 µM (inactive)

Q: What about the GI50 (NCI-H522) of the same molecule?
A: > 100 µM (inactive)

Q: And the GI50 (NCI/ADR-RES)?
A: > 100 µM (inactive)

Q: And the GI50 (OVCAR-3)?
A: > 100 µM (inactive)

Q: And the GI50 (OVCAR-5)?
A: > 100 µM (inactive)

Q: What about the GI50 (PC-3) of the same molecule?
A: > 100 µM (inactive)

Q: What about the GI50 (RPMI-8226) of the same molecule?
A: > 100 µM (inactive)

Q: What about the GI50 (SK-MEL-2) of the same molecule?
A: > 100 µM (inactive)

Q: What about the GI50 (SN12C) of the same molecule?
A: > 100 µM (inactive)

Q: What about the GI50 (SNB-19) of the same molecule?
A: > 100 µM (inactive)

Q: What about the GI50 (SNB-75) of the same molecule?
A: > 100 µM (inactive)

Q: What about the GI50 (U-251) of the same molecule?
A: > 100 µM (inactive)

Q: Which results are given for C=C(C)C1CC2(C)C(C)CC(O)CC2C(OC(=O)C=C(C)C)C1O (stereo not drawn)?
A: GI50 (A498): 65.5 µM (inactive); GI50 (ACHN): 18.6 µM (inactive); GI50 (CAKI-1): 43.3 µM (inactive); GI50 (HCC 2998): 43.8 µM (inactive); GI50 (HCT-116): 52.7 µM (inactive); GI50 (IGROV-1): 40.5 µM (inactive); GI50 (KM12): 33.7 µM (inactive); GI50 (MDA-MB-231): 24.5 µM (inactive); GI50 (NCI-H522): 24.3 µM (inactive); GI50 (NCI/ADR-RES): 30.5 µM (inactive); GI50 (OVCAR-4): 29.5 µM (inactive); GI50 (OVCAR-5): 31.3 µM (inactive); GI50 (PC-3): 37.6 µM (inactive); GI50 (SK-MEL-2): 61.5 µM (inactive); GI50 (SN12C): 30.9 µM (inactive); GI50 (SNB-19): 22.2 µM (inactive); GI50 (SNB-75): 11.6 µM (inactive); GI50 (U-251): 40 µM (inactive)

Q: What does the source list for CC1=CC[C@](C)(O)[C@@]2(C)CC[C@H]3C(=C(C)C)C(=O)C[C@]3(C)C[C@H]12?
A: GI50 (A498): > 50 µM (inactive); GI50 (ACHN): 38.7 µM (inactive); GI50 (CAKI-1): 16 µM (inactive); GI50 (HCC 2998): > 50 µM (inactive); GI50 (HCT-116): 14.1 µM (inactive); GI50 (IGROV-1): 19.3 µM (inactive); GI50 (KM12): 12.9 µM (inactive); GI50 (MDA-MB-231): > 50 µM (inactive); GI50 (NCI-H522): 10.4 µM (inactive); GI50 (NCI/ADR-RES): 16.5 µM (inactive); GI50 (OVCAR-3): 36.3 µM (inactive); GI50 (OVCAR-4): > 50 µM (inactive); GI50 (OVCAR-5): > 50 µM (inactive); GI50 (PC-3): 21.4 µM (inactive); GI50 (RPMI-8226): 11.2 µM (inactive); GI50 (SK-MEL-2): > 50 µM (inactive); GI50 (SN12C): 34.8 µM (inactive); GI50 (SNB-19): > 50 µM (inactive); GI50 (SNB-75): 26.5 µM (inactive); GI50 (U-251): > 50 µM (inactive)

Q: Which results are given for Cc1cccc2c1CC(C1OC(=O)c3ccccc31)C2=O (stereo not drawn)?
A: GI50 (A498): > 100 µM (inactive); GI50 (ACHN): > 100 µM (inactive); GI50 (CAKI-1): > 100 µM (inactive); GI50 (HCC 2998): > 100 µM (inactive); GI50 (HCT-116): > 100 µM (inactive); GI50 (IGROV-1): > 100 µM (inactive); GI50 (KM12): > 100 µM (inactive); GI50 (MDA-MB-231): > 100 µM (inactive); GI50 (NCI-H522): > 100 µM (inactive); GI50 (NCI/ADR-RES): > 100 µM (inactive); GI50 (OVCAR-3): > 100 µM (inactive); GI50 (OVCAR-4): > 100 µM (inactive); GI50 (OVCAR-5): > 100 µM (inactive); GI50 (PC-3): > 100 µM (inactive); GI50 (RPMI-8226): > 100 µM (inactive); GI50 (SK-MEL-2): > 100 µM (inactive); GI50 (SN12C): > 100 µM (inactive); GI50 (SNB-19): > 100 µM (inactive); GI50 (SNB-75): > 100 µM (inactive); GI50 (U-251): > 100 µM (inactive)

Q: For CC(C)(C)OC(=O)NC(Cc1ccc(OCc2ccccc2)cn1)C(=O)N1CCCCC1 (stereo not drawn), which GI50 (A498) is on record?
A: 34.5 µM (inactive)

Q: And the GI50 (ACHN)?
A: 41.4 µM (inactive)

Q: What about the GI50 (CAKI-1) of the same molecule?
A: 60.4 µM (inactive)

Q: What about the GI50 (HCC 2998) of the same molecule?
A: 19.9 µM (inactive)

Q: What about the GI50 (HCT-116) of the same molecule?
A: 40.8 µM (inactive)

Q: And the GI50 (IGROV-1)?
A: 53.7 µM (inactive)

Q: And the GI50 (KM12)?
A: 30.9 µM (inactive)

Q: And the GI50 (MDA-MB-231)?
A: 43.4 µM (inactive)

Q: What about the GI50 (NCI-H522) of the same molecule?
A: 32.1 µM (inactive)

Q: What about the GI50 (NCI/ADR-RES) of the same molecule?
A: 20.9 µM (inactive)

Q: What about the GI50 (OVCAR-3) of the same molecule?
A: 35.6 µM (inactive)

Q: What about the GI50 (OVCAR-5) of the same molecule?
A: 65.2 µM (inactive)

Q: What about the GI50 (PC-3) of the same molecule?
A: 22.2 µM (inactive)

Q: What about the GI50 (RPMI-8226) of the same molecule?
A: 20.7 µM (inactive)

Q: What about the GI50 (SK-MEL-2) of the same molecule?
A: 25.5 µM (inactive)

Q: And the GI50 (SN12C)?
A: 37.8 µM (inactive)

Q: And the GI50 (SNB-19)?
A: 80.5 µM (inactive)

Q: And the GI50 (SNB-75)?
A: 20.5 µM (inactive)

Q: What about the GI50 (U-251) of the same molecule?
A: 42.4 µM (inactive)

Q: How did the GI50 (A498) turn out when Cc1ccc(N)c(S)c1 was run?
A: 16.7 µM (inactive)

Q: And the GI50 (ACHN)?
A: 18.5 µM (inactive)

Q: What about the GI50 (CAKI-1) of the same molecule?
A: 28.8 µM (inactive)

Q: And the GI50 (HCC 2998)?
A: 32.1 µM (inactive)

Q: What about the GI50 (HCT-116) of the same molecule?
A: 32.1 µM (inactive)

Q: What about the GI50 (IGROV-1) of the same molecule?
A: 17.7 µM (inactive)

Q: And the GI50 (KM12)?
A: 18.3 µM (inactive)

Q: What about the GI50 (MDA-MB-231) of the same molecule?
A: 17.1 µM (inactive)

Q: And the GI50 (NCI-H522)?
A: 17.9 µM (inactive)

Q: What about the GI50 (NCI/ADR-RES) of the same molecule?
A: 24 µM (inactive)

Q: What about the GI50 (OVCAR-3) of the same molecule?
A: 21.3 µM (inactive)

Q: And the GI50 (OVCAR-4)?
A: 20 µM (inactive)

Q: What about the GI50 (OVCAR-5) of the same molecule?
A: 22.3 µM (inactive)

Q: What about the GI50 (PC-3) of the same molecule?
A: 15.3 µM (inactive)

Q: What about the GI50 (SK-MEL-2) of the same molecule?
A: 17.2 µM (inactive)

Q: And the GI50 (SN12C)?
A: 1.7 µM (inactive)

Q: What about the GI50 (SNB-19) of the same molecule?
A: 21.1 µM (inactive)

Q: What about the GI50 (SNB-75) of the same molecule?
A: 21.7 µM (inactive)

Q: And the GI50 (U-251)?
A: 15.2 µM (inactive)
